# From ChEMBL document CHEMBL1201862, “PubChem BioAssay data set” (2004)
# Values joined by “and” are separate entries in the source; they are usually repeats but may differ in a detail not shown here. Identical values can stand only once.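 Cultured in 96-well plates, cells were exposed to test compound for 48 hours across five concentrations. At the GI50, growth is halved.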 Active and inactive are the calls of the source. Cut-off read from the data, not from the text of the source: active = GI50 up to about 1.1 µM and inactive = higher.
# Experiments:
# Assay in all cases: DTP human tumour cell line panel, 48 h
# A549 = system: A549
# ACHN = system: ACHN
# CCRF-CEM = system: CCRF-CEM
# DU-145 = system: DU-145
# EKVX = system: EKVX
# HCC 2998 = system: HCC 2998
# HCT-116 = system: HCT-116
# HCT-15 = system: HCT-15
# HL-60 = system: HL-60
# HT-29 = system: HT-29
# K562 = system: K562
# KM12 = system: KM12
# LOX IMVI = system: LOX IMVI
# M14 = system: M14
# MCF7 = system: MCF7
# MDA-MB-435 = system: MDA-MB-435
# MDA-N = system: MDA-N
# MOLT-4 = system: MOLT-4
# Malme-3M = system: Malme-3M
# NCI-H226 = system: NCI-H226
# NCI-H460 = system: NCI-H460
# NCI/ADR-RES = system: NCI/ADR-RES
# OVCAR-5 = system: OVCAR-5
# PC-3 = system: PC-3
# RPMI-8226 = system: RPMI-8226
# RXF 393 = system: RXF 393
# SF-539 = system: SF-539
# SK-MEL-28 = system: SK-MEL-28
# SN12C = system: SN12C
# SW-620 = system: SW-620
# T47D = system: T47D
# UACC-257 = system: UACC-257
# UACC-62 = system: UACC-62
# UO-31 = system: UO-31
# 786-0 = system: 786-0
# COLO 205 = system: COLO 205
# HOP-62 = system: HOP-62
# HOP-92 = system: HOP-92
# Hs-578T = system: Hs-578T
# IGROV-1 = system: IGROV-1
# MDA-MB-231 = system: MDA-MB-231
# NCI-H23 = system: NCI-H23
# NCI-H522 = system: NCI-H522
# OVCAR-3 = system: OVCAR-3
# OVCAR-4 = system: OVCAR-4
# OVCAR-8 = system: OVCAR-8
# SF-268 = system: SF-268
# SF-295 = system: SF-295
# SK-MEL-2 = system: SK-MEL-2
# SK-MEL-5 = system: SK-MEL-5
# SK-OV-3 = system: SK-OV-3
# SNB-19 = system: SNB-19
# SNB-75 = system: SNB-75
# SR = system: SR
# TK-10 = system: TK-10
# U-251 = system: U-251
smiles,measurement,setting,value
CC(=O)OCC1OC(n2c(-c3ccc(Cl)cc3)ccc(C#N)c2=S)C(OC(C)=O)C(OC(C)=O)C1OC(C)=O (centres undefined),GI50,A549,83.9 µM (inactive) and 66.5 µM (inactive)
same,GI50,ACHN,68.1 µM (inactive) and 58.5 µM (inactive)
same,GI50,CCRF-CEM,> 100 µM (inactive)
same,GI50,DU-145,74.8 µM (inactive) and > 77.1 µM (inactive)
same,GI50,EKVX,17.6 µM (inactive) and 15.1 µM (inactive)
same,GI50,HCC 2998,> 100 µM (inactive)
same,GI50,HCT-116,77.4 µM (inactive) and 61.2 µM (inactive)
same,GI50,HCT-15,> 100 µM
same,GI50,HL-60,> 100 µM (inactive)
same,GI50,HT-29,> 100 µM (inactive)
same,GI50,K562,> 100 µM (inactive)
same,GI50,KM12,> 100 µM (inactive)
same,GI50,LOX IMVI,54.1 µM (inactive)
same,GI50,M14,76 µM (inactive) and > 84.7 µM (inactive)
same,GI50,MCF7,> 100 µM (inactive) and 50.5 µM (inactive)
same,GI50,MDA-MB-435,53.3 µM (inactive)
same,GI50,MDA-N,> 100 µM (inactive)
same,GI50,MOLT-4,> 100 µM (inactive) and 51.3 µM (inactive)
same,GI50,Malme-3M,> 61.1 µM (inactive) and 45 µM (inactive)
same,GI50,NCI-H226,27 µM (inactive) and 45.9 µM (inactive)
same,GI50,NCI-H460,> 60.4 µM (inactive) and 55.5 µM (inactive)
same,GI50,NCI/ADR-RES,74 µM (inactive)
same,GI50,OVCAR-5,> 100 µM (inactive)
same,GI50,PC-3,> 100 µM (inactive) and 55.5 µM (inactive)
same,GI50,RPMI-8226,> 100 µM (inactive) and 56 µM (inactive)
same,GI50,RXF 393,20 µM (inactive) and 13.3 µM (inactive)
same,GI50,SF-539,30.4 µM (inactive) and 39.1 µM (inactive)
same,GI50,SK-MEL-28,> 100 µM (inactive)
same,GI50,SN12C,> 100 µM (inactive)
same,GI50,SW-620,> 100 µM (inactive)
same,GI50,T47D,30.6 µM (inactive) and 48.9 µM (inactive)
same,GI50,UACC-257,> 100 µM (inactive) and 73.6 µM (inactive)
same,GI50,UACC-62,37.4 µM (inactive) and 31.6 µM (inactive)
same,GI50,UO-31,29.6 µM (inactive) and 33.6 µM (inactive)
CCOC(=O)Cn1c(=O)c2nc(SC)sc2n(-c2ccccc2)c1=S,GI50,786-0,12.1 µM (inactive)
same,GI50,A549,82.2 µM (inactive)
same,GI50,ACHN,13.9 µM (inactive)
same,GI50,CCRF-CEM,> 100 µM (inactive)
same,GI50,COLO 205,42.1 µM (inactive)
same,GI50,DU-145,> 100 µM (inactive)
same,GI50,HCC 2998,40 µM (inactive)
same,GI50,HCT-116,27.5 µM (inactive)
same,GI50,HCT-15,52 µM
same,GI50,HL-60,32.3 µM (inactive)
same,GI50,HOP-62,19.9 µM (inactive)
same,GI50,HOP-92,4.8 µM (inactive)
same,GI50,HT-29,> 100 µM (inactive)
same,GI50,Hs-578T,4.18 µM (inactive)
same,GI50,IGROV-1,3.05 µM (inactive)
same,GI50,K562,> 100 µM (inactive)
same,GI50,KM12,25.8 µM (inactive)
same,GI50,LOX IMVI,94 µM (inactive)
same,GI50,M14,32.5 µM (inactive)
same,GI50,MCF7,> 100 µM (inactive)
same,GI50,MDA-MB-231,22.3 µM (inactive)
same,GI50,MDA-MB-435,64.6 µM (inactive)
same,GI50,MDA-N,40.8 µM (inactive)
same,GI50,MOLT-4,> 100 µM (inactive)
same,GI50,Malme-3M,18.8 µM (inactive)
same,GI50,NCI-H226,18.4 µM (inactive)
same,GI50,NCI-H23,36.5 µM (inactive)
same,GI50,NCI-H460,30.1 µM (inactive)
same,GI50,NCI-H522,68.1 µM (inactive)
same,GI50,NCI/ADR-RES,36.7 µM (inactive)
same,GI50,OVCAR-3,26.6 µM (inactive)
same,GI50,OVCAR-4,15.3 µM (inactive)
same,GI50,OVCAR-5,93.3 µM (inactive)
same,GI50,OVCAR-8,43.9 µM (inactive)
same,GI50,PC-3,26.2 µM (inactive)
same,GI50,RPMI-8226,> 100 µM (inactive)
same,GI50,RXF 393,21 µM (inactive)
same,GI50,SF-268,32.4 µM (inactive)
same,GI50,SF-295,32.5 µM (inactive)
same,GI50,SF-539,15.6 µM (inactive)
same,GI50,SK-MEL-28,96.6 µM (inactive)
same,GI50,SK-MEL-2,17.5 µM (inactive)
same,GI50,SK-MEL-5,> 100 µM (inactive)
same,GI50,SK-OV-3,22.7 µM (inactive)
same,GI50,SN12C,35.9 µM (inactive)
same,GI50,SNB-19,13.4 µM (inactive)
same,GI50,SNB-75,4.1 µM (inactive)
same,GI50,SR,> 100 µM (inactive)
same,GI50,SW-620,50.4 µM (inactive)
same,GI50,T47D,40.8 µM (inactive)
same,GI50,TK-10,30.3 µM (inactive)
same,GI50,U-251,13.4 µM (inactive)
same,GI50,UACC-257,> 100 µM (inactive)
same,GI50,UACC-62,< 10 nM (active)
same,GI50,UO-31,4.43 µM (inactive)
